The values that follow come from EP2077260B1, “AMIDE COMPOUND OR SALT THEREOF, AND BIOFILM FORMATION INHIBITOR, BIOFILM REMOVER AND BACTERICIDE EACH USING THE AMIDE COMPOUND OR SALT THEREOF” (The University of Tokyo, priority 2006, dated 2008).

In brackets after ≈: the same amount, converted by molar mass. Like-named read-outs stand apart in the source and are kept apart here.

Assay [1] relates to Pseudomonas aeruginosa ATCC 27853. Conditions: Publicly-known data, CLSI(M100-S16)2006 liquid dilution method; cited from earlier work.
Assay [2] relates to Escherichia coli ATCC 25922. Conditions: Publicly-known data, CLSI(M100-S16)2006 liquid dilution method; cited from earlier work.
Assay [3] deals with Staphylococcus aureus Methicillin resistant (MRSA) ATCC 43300. Briefly: Evaluation test for disinfecting effect, broth dilution method CLSI(M7-A7)2006. The following applies: 37°C, 18 hours. It counts as cell-based. The source says: (§1) The following test compounds were examined for the disinfecting activities against Pseudomonas aeruginosa, E.. Coli and staphylococcus aureus, according to a broth dilution method of "CLSI(M7-A7)2006" (Clinical and Laboratory Standards Institute, M7-A7, Methods for Dilution Antimicrobial Susceptibility Tests for Bacteria That Grow Aerobically; Approved Standard-Seventh Edition, 2006),
(§2) • Pseudomonas aeruginosa PAO1 • Pseudomonas aeruginosa ATCC 27853 • Escherichia coli ATCC 25922 • Staphylococcus aureus ATCC 29213 • Staphylococcus aureus Methicillin resistant (MRSA) ATCC 43300
(§3) Each of above-mentioned bacteria was inoculated in a TSB culture medium (Bacto TSB Broth, product of BD) for overnight cultivation at 37°C. The culture solution was applied to a TSB agar plate for about a 20-hour cultivation to form colonies. Three to five colonies were taken from the agar plate, and an average colony of them was inoculated in a 4mL TSB culture medium.. The colony was cultivated at 35°C until the number of microorganisms became 1 × 10^8 to 2 x 10^8 CFU/mL. The number of microorganisms with time was found by measuring changes in absorbency at 590nm of culture solution with time. When the turbidity became equivalent to 0.5 McFarland standard, it was determined that the number of microorganisms reached the target level = 1 × 10^8 to 2 × 10^8 CFU/mL.
(§4) The bacillus culture solution thus obtained was diluted 10-fold within 15 minutes, and a 5µL portion was inoculated in each well of an evaluation 96-well microplate. This 96-well microplate was a sterilized 96-well microplate with U-shaped bottoms (Falcon 35-3918: product of BD), and each well was filled with a 100µL portion of MH culture medium (BBL MH Broth: product of BD). Within 15 minutes after inoculation of the bacillus culture solutions, the test compounds were supplied to the well in a manner of 2-fold graded dilution. The cultivation was then carried out at 37°C for 18 hours.
(§5) The MIC was determined as follows. "S (susceptible)" indicates a concentration which caused 80% or more reduction in the diameter of the aggregation deposited in the bottom of the well, compared to when the test liquid is not used. "R (Resistant)" indicates a concentration that caused less than 80% reduction in diameter. The reduction was measured visually.. "I(Intermediate)" indicates a concentration that cannot be measured visually
In general terms: In broth dilution the organism is exposed to a series of concentrations in liquid medium.

Assay [4] concerns Escherichia coli ATCC 25922. The description is as above. The following applies: 37°C, 18 hours. It counts as cell-based.
Source text: as §1, §2, §3, §4, §5

The subject of assay [5] is Pseudomonas aeruginosa PAO1. The assay is described as above. The following applies: 37°C, 18 hours. It counts as cell-based.
Source text: as §1, §2, §3, §4, §5

Assay [6] relates to Staphylococcus aureus ATCC 29213. The assay is described as above. It counts as cell-based. The following applies: 37°C, 18 hours.
Source text: as §1, §2, §3, §4, §5

Assay [7] concerns Pseudomonas aeruginosa ATCC 27853. The description is as above. It is filed as cell-based. Conditions: 37°C, 18 hours.
Source text: as §1, §2, §3, §4, §5

In assay [8] the test system is Staphylococcus aureus ATCC 29213. Conditions: Publicly-known data, CLSI(M100-S16)2006 liquid dilution method; cited from earlier work.
The mark [9] stands for this setting: I (Intermediate): concentration that cannot be measured visually, read-out: MIC (µg/mL) I.
The mark [10] stands for this setting: R (Resistant): concentration that caused less than 80% reduction in diameter of the aggregation, read-out: MIC (µg/mL) R.
[11] abbreviates: S (susceptible): concentration which caused 80% or more reduction in diameter of the aggregation, read-out: MIC (µg/mL) S.
The mark [12] stands for this setting: ATCC25922, I (Intermediate): concentration that cannot be measured visually, read-out: MIC (µg/mL) I.
Setting [13] is: ATCC25922, R (Resistant): concentration that caused less than 80% reduction in diameter of the aggregation, read-out: MIC (µg/mL) R.
Where [14] appears, read: ATCC25922, S (susceptible): concentration which caused 80% or more reduction in diameter of the aggregation, read-out: MIC (µg/mL) S.
Setting [15] is: PAO1, I (Intermediate): concentration that cannot be measured visually, read-out: MIC (µg/mL) I.
Setting [16] is: PAO1, R (Resistant): concentration that caused less than 80% reduction in diameter of the aggregation, read-out: MIC (µg/mL) R.
[17] abbreviates: PAO1, S (susceptible): concentration which caused 80% or more reduction in diameter of the aggregation, read-out: MIC (µg/mL) S.
The mark [18] stands for this setting: ATCC29213, I (Intermediate): concentration that cannot be measured visually, read-out: MIC (µg/mL) I.
Setting [19] is: ATCC29213, R (Resistant): concentration that caused less than 80% reduction in diameter of the aggregation, read-out: MIC (µg/mL) R.
The mark [20] stands for this setting: ATCC29213, S (susceptible): concentration which caused 80% or more reduction in diameter of the aggregation, read-out: MIC (µg/mL) S.
Setting [21] is: ATCC27853, I (Intermediate): concentration that cannot be measured visually, read-out: MIC (µg/mL) I.
The mark [22] stands for this setting: ATCC27853, R (Resistant): concentration that caused less than 80% reduction in diameter of the aggregation, read-out: MIC (µg/mL) R.
Where [23] appears, read: ATCC27853, S (susceptible): concentration which caused 80% or more reduction in diameter of the aggregation, read-out: MIC (µg/mL) S.

With `CC(C)(O/N=C(\C(=O)N[C@@H]1C(=O)N2C(C(=O)[O-])=C(C[n+]3ccccc3)CS[C@H]12)c1csc(N)n1)C(=O)O` [CAZ, Ceftazidime], the “MIC (µg/mL) from M100-S16” value in assay [1] is 1 to 4 µg/mL; in assay [2], 0.06 to 0.5 µg/mL; in assay [8], 4 to 16 µg/mL. Besides, the MIC was 8 µg/mL (≈ 14.6 µM) in assay [3] (setting [9]); not above 4 µg/mL in assay [3] (setting [10]); not below 16 µg/mL in assay [3] (setting [11]); 0.125 µg/mL (≈ 0.229 µM) in assay [4] (setting [12]); not above 0.063 µg/mL in assay [4] (setting [13]); not below 0.25 µg/mL in assay [4] (setting [14]). The MIC in assay [5] (setting [15]) is 1 µg/mL (≈ 1.83 µM); in assay [5] (setting [16]) it was not above 0.5 µg/mL; in assay [5] (setting [17]), not below 2 µg/mL; in assay [6] (setting [18]), 4 µg/mL (≈ 7.32 µM); in assay [6] (setting [19]), not above 2 µg/mL; in assay [6] (setting [20]), not below 8 µg/mL. The MIC is 2 µg/mL (≈ 3.66 µM) in assay [7] (setting [21]), not above 1 µg/mL in assay [7] (setting [22]) and not below 4 µg/mL in assay [7] (setting [23]).

On to `NC[C@H]1O[C@H](O[C@H]2[C@H](O)[C@@H](O[C@H]3O[C@H](CO)[C@@H](O)[C@H](N)[C@H]3O)[C@H](N)C[C@@H]2N)[C@H](N)C[C@@H]1O` [TOB, Tobramycin], for which the “MIC (µg/mL) from M100-S16” value in assay [1] was 0.25 to 1 µg/mL; in assay [2], 0.25 to 1 µg/mL; in assay [8], 0.12 to 1 µg/mL. The MIC is 128 µg/mL (≈ 274 µM) in assay [3] (setting [9]); not above 64 µg/mL in assay [3] (setting [10]); not below 256 µg/mL in assay [3] (setting [11]); 0.5 µg/mL (≈ 1.07 µM) in assay [4] (setting [12]); not above 0.25 µg/mL in assay [4] (setting [13]); not below 1 µg/mL in assay [4] (setting [14]). Moreover, the MIC in assay [5] (setting [15]) is 0.5 µg/mL (≈ 1.07 µM); in assay [5] (setting [16]) it was not above 0.25 µg/mL; in assay [5] (setting [17]), more than 1 µg/mL; in assay [6] (setting [18]), 0.25 µg/mL (≈ 0.535 µM); in assay [6] (setting [19]), not above 0.125 µg/mL; in assay [6] (setting [20]) it was not below 0.5 µg/mL. In addition, the MIC in assay [7] (setting [21]) is 0.5 µg/mL (≈ 1.07 µM); in assay [7] (setting [22]), not above 0.25 µg/mL; in assay [7] (setting [23]), not below 1 µg/mL.
